In PMC8286840, “Identifying SARS-CoV-2 antiviral compounds by screening for small molecule inhibitors of Nsp3 papain-like protease” (Biochemical Journal, 2021):
Structures can show the parent of a compound that is named as a salt. Where two headings read alike, the source gives them in different places.

Columns and labels:
[1] = target: T1, SARS-CoV-2 PLpro (nsp3 1564–1878) (Severe acute respiratory syndrome coronavirus 2, UniProt P0DTD1); experiment: biochemical; set-up: FRET-quenched peptide (Pro3) cleavage by PLpro, 10 min pre-incubation, slope over 20 min, normalised to no-compound control; conditions: read-out: % of control remaining
[2] = target: T1, SARS-CoV-2 PLpro (nsp3 1564–1878); experiment: biochemical; set-up: FRET-quenched peptide (Pro3) cleavage by PLpro, 10 min pre-incubation, slope over 20 min, normalised to no-compound control; conditions: read-out: % of control remaining; remark: listed apart in the source

O=[N+]([O-])c1ccc(S(=O)(=O)NCc2ccccc2)c([N+](=O)[O-])c1 [N-Benzyl-2,4-dinitrobenzenesulfonamide] was tested, and the remaining activity at 3.75 µM ([1]; Well no.=6125, high concentration screen) was 102% and the remaining activity at 1.25 µM ([2]; Well no.=6125, low concentration screen) was 98.4%.

Work on CC(=O)NBr [N-Bromoacetamide] yielded a remaining activity at 3.75 µM ([1]; Well no.=171, high concentration screen) of 98.1% and a remaining activity at 1.25 µM ([2]; Well no.=171, low concentration screen) of 101%.

Clc1ccc2c(c1)N=C(N1CCNCC1)c1ccccc1N2 [N-Desmethylclozapine] gave a remaining activity at 3.75 µM ([1]; Well no.=7229, high concentration screen) of 98.9% and a remaining activity at 1.25 µM ([2]; Well no.=7229, low concentration screen) of 100%.

With CCN1C(=O)C=CC1=O [N-Ethylmaleimide] the remaining activity at 3.75 µM ([1]; Well no.=461, high concentration screen) was 101%, the remaining activity at 3.75 µM ([1]; Well no.=4101, high concentration screen) was 95.8% and the remaining activity at 1.25 µM ([2]; Well no.=461, low concentration screen) was 102%. It also gave a remaining activity at 1.25 µM ([2]; Well no.=4101, low concentration screen) of 88.4%.

With COc1cc2c(c(OC)c1OC)-c1ccc(OC)c(=O)cc1[C@@H](NC=O)CC2 [N-Formyl-Deacetylcolchicine] the remaining activity at 3.75 µM [1] was 103% and the remaining activity at 1.25 µM [2] was 102%.

In the case of CC(C)CC(=O)NCC(=O)O [N-Isovaleroylglycine], the remaining activity at 3.75 µM ([1]; Well no.=6643, high concentration screen) is reported as 122% and the remaining activity at 1.25 µM ([2]; Well no.=6643, low concentration screen) is reported as 110%.

Compound CCCCC/C=C\C/C=C\CCCCCCCC(=O)NCC(=O)O [N-Linoleoylglycine] has a remaining activity at 3.75 µM ([1]; Well no.=4595, high concentration screen) of 94.3% and a remaining activity at 1.25 µM ([2]; Well no.=4595, low concentration screen) of 95%.

For CN1C[C@H](O)[C@@H](O)[C@H](O)[C@H]1CO [N-Methyl-1-deoxynojirimycin], the remaining activity at 3.75 µM ([1]; Well no.=1016, high concentration screen) was 98.3% and the remaining activity at 1.25 µM ([2]; Well no.=1016, low concentration screen) was 99.2%.

CN[C@H](CC(=O)O)C(=O)O [N-Methyl-D-aspartic acid] gave a remaining activity at 3.75 µM ([1]; Well no.=1020, high concentration screen) of 105% and a remaining activity at 1.25 µM ([2]; Well no.=1020, low concentration screen) of 103%.

CNC(=O)c1cc2c(cn1)[nH]c1ccccc12 [N-Methyl-beta-carboline-3-carboxamide] was tested, and the remaining activity at 3.75 µM ([1]; Well no.=655, high concentration screen) was 94.2% and the remaining activity at 1.25 µM ([2]; Well no.=655, low concentration screen) was 96.4%.

For CNCCc1ccc(O)c(O)c1 [N-Methyldopamine hydrochloride], the remaining activity at 3.75 µM ([1]; Well no.=693, high concentration screen) was 91.2% and the remaining activity at 1.25 µM ([2]; Well no.=693, low concentration screen) was 90.9%.

CN1CC(=O)NC1=O [N-Methylhydantoin] was tested, and the remaining activity at 3.75 µM ([1]; Well no.=6395, high concentration screen) was 98.5% and the remaining activity at 1.25 µM ([2]; Well no.=6395, low concentration screen) was 95.6%.

CN(C)CC(=O)O [N-Methylsarcosine] gave a remaining activity at 3.75 µM ([1]; Well no.=6873, high concentration screen) of 102% and a remaining activity at 1.25 µM ([2]; Well no.=6873, low concentration screen) of 104%.

For CCCCCCCC/C=C\CCCCCCCC(=O)NCCO [N-Oleoylethanolamine], the remaining activity at 3.75 µM ([1]; Well no.=1086, high concentration screen) was 94.6% and the remaining activity at 1.25 µM ([2]; Well no.=1086, low concentration screen) was 96.9%.

In the case of CCCCCCCC/C=C\CCCCCCCC(=O)NCC(=O)O [N-Oleoylglycine], the remaining activity at 3.75 µM ([1]; Well no.=5803, high concentration screen) is reported as 106% and the remaining activity at 1.25 µM ([2]; Well no.=5803, low concentration screen) is reported as 104%.

O=C(O)CNC(=O)C(=O)O [N-Oxalylglycine] showed a remaining activity at 3.75 µM ([1]; Well no.=5387, high concentration screen) of 92.4% and a remaining activity at 1.25 µM ([2]; Well no.=5387, low concentration screen) of 97.9%.

For O=C(O)c1ccccc1Nc1ccccc1 [N-Phenylanthranilic acid], the remaining activity at 3.75 µM ([1]; Well no.=51, high concentration screen) was 95.6% and the remaining activity at 1.25 µM ([2]; Well no.=51, low concentration screen) was 101%.

In the case of CCCOC(=O)c1cc(O)c(O)c(O)c1 [N-Propyl gallate], the remaining activity at 3.75 µM ([1]; Well no.=3987, high concentration screen) is reported as 102% and the remaining activity at 1.25 µM ([2]; Well no.=3987, low concentration screen) is reported as 104%.

Work on O=C(O)CCC(=O)N1CCC[C@H]1C(=O)O [N-Succinyl-L-proline] yielded a remaining activity at 3.75 µM ([1]; Well no.=1506, high concentration screen) of 91.2% and a remaining activity at 1.25 µM ([2]; Well no.=1506, low concentration screen) of 89.9%.

Compound CCCCCCCCC(=O)NCc1ccc(O)c(OC)c1 [N-Vanillylnonanamide] has a remaining activity at 3.75 µM [1] of 96.6% and a remaining activity at 1.25 µM [2] of 96.7%.

CC(ONC(=O)c1cc(C(F)(F)F)cc(C(F)(F)F)c1)C(=O)Nc1ccc(Cl)cc1 (stereo not shown) [N-[2-(4-chloroanilino)-1-methyl-2-oxoethoxy]-3,5-bis(trifluoromethyl)benzamide] was tested, and the remaining activity at 3.75 µM ([1]; Well no.=5698, high concentration screen) was 103% and the remaining activity at 1.25 µM ([2]; Well no.=5698, low concentration screen) was 101%.

For Cc1ccc(F)cc1C(=O)Nc1ccc(C(=O)N2Cc3cccn3Cc3ccccc32)c(Cl)c1 [N-[3-chloro-4-(5H-pyrrolo[2,1-c][1,4]benzodiazepin-10(11H)-ylcarbonyl)phenyl]-5-fluoro-2-methylbenzamide], the remaining activity at 3.75 µM ([1]; Well no.=5601, high concentration screen) was 107% and the remaining activity at 1.25 µM ([2]; Well no.=5601, low concentration screen) was 103%.

Compound CN(C)[C@@H]1CCc2[nH]c3ccc(NC(=O)c4ccc(F)cc4)cc3c2C1 [N-[(3R)-3-(dimethylamino)-2,3,4,9-tetrahydro-1H-carbazol-6-yl]-4-fluorobenzamide hydrochloride] has a remaining activity at 3.75 µM ([1]; Well no.=6008, high concentration screen) of 95.9% and a remaining activity at 1.25 µM ([2]; Well no.=6008, low concentration screen) of 97.7%.

Nc1ccc(CNc2ncnc3c2ncn3[C@@H]2O[C@H](CO)[C@@H](O)[C@H]2O)cc1 [N-[(4-Aminophenyl)methyl]adenosine] was tested, and the remaining activity at 3.75 µM ([1]; Well no.=8319, high concentration screen) was 100%, the remaining activity at 3.75 µM ([1]; Well no.=8895, high concentration screen) was 99.6% and the remaining activity at 1.25 µM ([2]; Well no.=8319, low concentration screen) was 104%. For the same compound, the remaining activity at 1.25 µM ([2]; Well no.=8895, low concentration screen) was 102%.

Compound Cc1ccccc1C(C(=O)NC1CCCCC1)N(C(=O)Cn1ccnc1C)c1cccc(F)c1 (stereo not shown) [N-cyclohexyl-2-(N-(3-fluorophenyl)-2-(2-methyl-1H-imidazol-1-yl)acetamido)-2-(o-tolyl)acetamide] has a remaining activity at 3.75 µM ([1]; Well no.=5600, high concentration screen) of 95.4% and a remaining activity at 1.25 µM ([2]; Well no.=5600, low concentration screen) of 93.6%.

O=C(Nc1cccc(C(F)(F)F)c1)Nc1cc(S(=O)(=O)NC2CC2)ccc1-c1ccsc1 [N-cyclopropyl-4-(thiophen-3-yl)-3-(3-(3-(trifluoromethyl)phenyl)ureido)benzenesulfonamide] gave a remaining activity at 3.75 µM ([1]; Well no.=5549, high concentration screen) of 103% and a remaining activity at 1.25 µM ([2]; Well no.=5549, low concentration screen) of 100%.

COc1nc(OCc2cccc(-c3ccccc3)c2C)ccc1CNCCN [N-deacetylated BMS-202] showed a remaining activity at 3.75 µM ([1]; Well no.=8458, high concentration screen) of 100% and a remaining activity at 1.25 µM ([2]; Well no.=8458, low concentration screen) of 102%.

For C[C@@H]1c2cc(O)c(O)cc2CCN1C [N-methyl-R-salsolinol hydrobromide], the remaining activity at 3.75 µM ([1]; Well no.=830, high concentration screen) was 101% and the remaining activity at 1.25 µM ([2]; Well no.=830, low concentration screen) was 99.6%.

With C[C@H](C#Cc1ccc(Cc2ccc(F)cc2)s1)N(O)C(N)=O [N-{(1R)-3-[5-(4-fluorobenzyl)-2-thienyl]-1-methyl-2-propynyl}-N-hydroxyurea] the remaining activity at 3.75 µM ([1]; Well no.=5434, high concentration screen) was 103% and the remaining activity at 1.25 µM ([2]; Well no.=5434, low concentration screen) was 99.4%.

Compound CON(C)C(=O)[C@H](O)[C@H](Cc1ccccc1)NC(=O)c1cc2cc(Cl)ccc2[nH]1 [N-{(1S,2R)-1-benzyl-2-hydroxy-3-[methoxy(methyl)amino]-3-oxopropyl}-5-chloro-1H-indole-2-carboxamide] has a remaining activity at 3.75 µM ([1]; Well no.=6057, high concentration screen) of 97.9% and a remaining activity at 1.25 µM ([2]; Well no.=6057, low concentration screen) of 100%.

CC(C)S(=O)(=O)N[C@H]1CCOC[C@@H]1c1ccc(-c2ccc(C#N)s2)cc1 [N-{(3R,4S)-3-[4-(5-cyano-2-thienyl)phenyl]tetrahydro-2H-pyran-4-yl}-2-propanesulfonamide] was tested, and the remaining activity at 3.75 µM ([1]; Well no.=6010, high concentration screen) was 92.7% and the remaining activity at 1.25 µM ([2]; Well no.=6010, low concentration screen) was 100%.

With COc1ccccc1N1CCN(CCCCN2C(=O)c3ccccc3C2=O)CC1 [NAN-190 (hydrobromide)] the remaining activity at 3.75 µM ([1]; Well no.=7191, high concentration screen) was 94.2% and the remaining activity at 1.25 µM ([2]; Well no.=7191, low concentration screen) was 98.5%.

COc1ccccc1N1CCN(CCCCN2C(=O)c3ccccc3C2=O)CC1 [NAN-190 hydrobromide] was tested, and the remaining activity at 3.75 µM ([1]; Well no.=1141, high concentration screen) was 99.5% and the remaining activity at 1.25 µM ([2]; Well no.=1141, low concentration screen) was 97%.
